Consider 13 compounds from PMC4753678 (Journal of medicinal chemistry, 2016).

As usually defined, the fraction unbound is free concentration divided by total concentration. Read a low fraction unbound as extensive binding.

In series [1] the target is T1, full-length human dCTPase protein (Homo sapiens, UniProt Q9H773).
T1 sequence (Q9H773 1-170): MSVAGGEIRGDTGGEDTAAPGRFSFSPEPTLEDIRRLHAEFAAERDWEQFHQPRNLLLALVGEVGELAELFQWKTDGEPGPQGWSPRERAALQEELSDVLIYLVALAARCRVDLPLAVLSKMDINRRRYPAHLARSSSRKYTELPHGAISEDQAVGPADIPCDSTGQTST
The series can be described thus: HTS-adapted Malachite Green assay of dCTPase inhibition. The note with it: for decrease in potency: compared with compound 6. The series is classed as biochemical.

The test system of another series is NTPases/NUDIX hydrolases. Put plainly: selectivity panel of related NTPases/NUDIX hydrolases. Type of series: biochemical.
The target in another series is T2, intracellular dCTPase (Homo sapiens, UniProt Q9H773).
T2 sequence (Q9H773 1-170): T1 sequence (Q9H773 1-170)
The series can be described thus: cellular thermal shift assay in HL60 cells. The note with it: 2 h incubation, heated at 67 °C. The series is classed as cell-based.

Another series deals with kinases. Put plainly: selectivity against kinases. The series is classed as biochemical.
The test system of series [2] is base excision repair enzymes. The series can be described thus: selectivity against base excision repair enzymes. Type of series: biochemical.
A short description of series [3]: human liver microsome stability. The note with it: human liver microsomes. On the technique in general: Liver microsomes are vesicles of endoplasmic reticulum, rich in cytochrome P450 enzymes.
For the next series, the system named is DNA. Put plainly: DNA intercalation.
For the next series, the target named is T3, purified dCTPase enzyme (Homo sapiens, UniProt Q9H773).
T3 sequence (Q9H773 1-170): T1 sequence (Q9H773 1-170)
The series can be described thus: differential scanning fluorimetry assay. Type of series: binding. A general note: Differential scanning fluorimetry follows unfolding on heating by fluorescence.

Series [4] is described as follows: mouse liver microsome stability. The note with it: mouse liver microsomes.
Series [5] has as its system p-Chk1, γ-H2AX, 53BP1, cleaved caspase 3. The series can be described thus: DNA replication stress and apoptosis markers. The series is classed as cell-based. Conditions: at the concentrations and time points tested.
Another series relates to HL60 cells. The series can be described thus: combination with cytidine analogues, cell death by flow cytometry. Conditions: 72 h, compound 18 2.5 μM, increasing concentrations of cytidine analogues. Type of series: cell-based.
Series [6] can be described thus: glutathione conjugation with metabolic activation in HLM. Type of series: in vitro ADME, human. The note with it: in the presence of metabolic activation system (in HLM).
A further series has as its target T4, dCTPase (Homo sapiens, UniProt Q9H773).
T4 sequence (Q9H773 1-170): T1 sequence (Q9H773 1-170)
The series can be described thus: jump dilution assay. The series is classed as biochemical. Conditions: 10% of the IC50 concentration.

The nature of series [7]: stability of a solution at room temperature under normal light. The series is classed as physicochemical. Conditions: normal light conditions, five months.
The next series can be described thus: plasma protein binding. The series is classed as in vitro ADME.

Take `Cc1nc2cc(Cl)c(Cl)cc2n1Cc1ccc(B(O)O)cc1` [Compound 38, (4-((5,6-Dichloro-2-methyl-1H-benzo[d]imidazol-1-yl)methyl)-phenyl)boronic Acid]: in [1], the “inhibition of dCTPase (in words)” value is reported as “submicromolar activity”.
Turning to `COc1ccc(Cn2c(C)nc3c([N+](=O)[O-])cccc32)cc1` [Compound 12, 1-(4-Methoxybenzyl)-2-methyl-4-nitro-1H-benzo[d]imidazole], the decrease in potency result in series [1] is on record as “approximately 25 fold”.
For the compound `COc1ccc(Cn2c(C)nc3c([N+](=O)[O-])c(Cl)c(Cl)cc32)cc1` [Compound 14, 5,6-Dichloro-1-(4-methoxybenzyl)-2-methyl-4-nitro-1H-benzo-[d]imidazole], in the series on NTPases/NUDIX hydrolases, the “selectivity across related NTPases/NUDIX hydrolases” value was “excellent selectivity”. Further, the “intracellular dCTPase stabilization / target engagement” value at intracellular dCTPase was “did not stabilize dCTPase”. Moreover, in the series with kinases, the selectivity over kinases result is “excellent selectivity”. Further, the “selectivity over base excision repair enzymes” value in series [2] is “excellent selectivity”. The “E HLM (extraction ratio)” value in series [3] is listed as 0.59. The DNA intercalation entry with DNA is given as “did not intercalate DNA”. Moreover, on purified dCTPase enzyme, the “stabilization of the purified dCTPase enzyme” value is recorded as “concentration-dependent stabilization”. The “E MLM (extraction ratio)” value in series [4] came out at 0.88.
In the case of `COc1ccc(Cn2cnc3ccccc32)cc1` [Compound 7, 1-(4-Methoxybenzyl)-1H-benzo[d]imidazole], in series [1], the “inhibition of dCTPase (in words)” value was “no inhibiton of dCTPase”.
As for `Cc1nc2c([N+](=O)[O-])c(Cl)c(Cl)cc2n1Cc1ccc(B(O)O)cc1` [Compound 18, (4-((5,6-Dichloro-2-methyl-4-nitro-1H-benzo[d]imidazol-1-yl)-methyl)phenyl)boronic Acid], the “DNA replication stress (p-Chk1, γ-H2AX, 53BP1) and cleaved caspase 3” value in series [5] is given as “did not increase DNA replication stress”. For the same compound, the “selectivity across related NTPases/NUDIX hydrolases” value in the series on NTPases/NUDIX hydrolases is on record as “excellent selectivity”. Also, at intracellular dCTPase, the “intracellular dCTPase stabilization / target engagement” value is given as “strong intracellular target engagement”. In addition, in the series on kinases, the selectivity over kinases entry is given as “excellent selectivity”. For the same compound, the “selectivity over base excision repair enzymes” value in [2] is “excellent selectivity”. Also, the “cell death in combination with cytidine analogues” value in the series on HL60 cells is recorded as “concentration-dependent increase in cell death”. Further, the “conjugation with glutathione (GSH)” value in series [6] is “did not conjugate”. The “E HLM (extraction ratio)” value in series [3] was 0.38. In addition, the DNA intercalation entry in the series on DNA was “did not intercalate DNA”. In addition, the “stabilization of the purified dCTPase enzyme” value at purified dCTPase enzyme is listed as “concentration-dependent stabilization”. Further, at dCTPase, the “reversibility of dCTPase inhibition” value was “reversible off-rate”. Besides, the “degradation of a solution” value in series [7] was “no signs of degradation”. Besides, in series [4], the “E MLM (extraction ratio)” value is 0.24.
`Cc1nc2c([N+](=O)[O-])c(F)c(F)cc2n1Cc1ccc(B(O)O)cc1` [Compound 39, (4-((5,6-Difluoro-2-methyl-4-nitro-1H-benzo[d]imidazol-1-yl)-methyl)phenyl)boronic Acid]: in series [1], the “inhibition of dCTPase (in words)” value is on record as “submicromolar activity”.
With `COc1ccc(Cn2c(C)nc3ccccc32)cc1` [Compound 9, 1-(4-Methoxybenzyl)-2-methyl-1H-benzo[d]imidazole], in series [1], the “inhibition of dCTPase (in words)” value is on record as “no inhibition of dCTPase”.
With `Cc1nc2c([N+](=O)[O-])c(Cl)c(Cl)cc2n1Cc1ccc(-n2cccn2)cc1` [Compound 27, 1-(4-(1H-Pyrazol-1-yl)benzyl)-5,6-dichloro-2-methyl-4-nitro-1H-benzo[d]imidazole], the “E HLM (extraction ratio)” value in series [3] is listed as 0.61. Also, in [4], the “E MLM (extraction ratio)” value was 0.73.
Compound `Cc1nc2c([N+](=O)[O-])c(Cl)c(Cl)cc2n1Cc1ccc(B2OC(=O)CN(C)CC(=O)O2)cc1` [Compound 30, 2-(4-((5,6-Dichloro-2-methyl-4-nitro-1H-benzo[d]-imidazol-1-yl)methyl)phenyl)-6-methyl-1,3,6,2-dioxazaborocane-4,8-dione] registered a fraction unbound in the series “plasma protein binding” of 0.008. The “conjugation with glutathione (GSH)” value in [6] is given as “did not conjugate”. The “E MLM (extraction ratio)” value in series [4] is given as 0.36.
On to `O=[N+]([O-])c1c(Cl)c(Cl)cc2c1nc(C1CC1)n2Cc1ccc(B(O)O)cc1` [Compound 36, (4-((5,6-Dichloro-2-cyclopropyl-4-nitro-1H-benzo[d]imidazol-1-yl)methyl)phenyl)boronic Acid], for which the “E HLM (extraction ratio)” value in series [3] is listed as 0.14. The “reversibility of dCTPase inhibition” value on dCTPase is listed as “reversible off-rate”. Also, in [4], the “E MLM (extraction ratio)” value is 0.83.
`COc1ccc(Cn2cnc3cc(C)c(C)cc32)cc1` [Compound 8, 1-(4-Methoxybenzyl)-5,6-dimethyl-1H-benzo[d]imidazole]: the “inhibition of dCTPase (in words)” value in series [1] is “no inhibiton of dCTPase”.
Take `Cc1n[nH]c(C)c1CCn1c(C)nc2c([N+](=O)[O-])c(Cl)c(Cl)cc21` [Compound 25, 5,6-Dichloro-1-(2-(3,5-dimethyl-1H-pyrazol-4-yl)ethyl)-2-methyl-4-nitro-1H-benzo[d]imidazole]: the “E HLM (extraction ratio)” value in [3] turned out to be 0.83. In series [4], the “E MLM (extraction ratio)” value is given as 0.89.
For `COc1ccc(Cn2c(C)nc3cc(C)c(C)cc32)cc1` [Compound 10, 1-(4-Methoxybenzyl)-2,5,6-trimethyl-1H-benzo[d]imidazole], the decrease in potency in series [1] was found to be 400 fold.
